Literature values in US7208285B2 (priority 2001, dated 2007).

Target: BoNT/A (Clostridium botulinum, UniProt P0DPI1)
Sequence (P0DPI1 whole entry, looked up): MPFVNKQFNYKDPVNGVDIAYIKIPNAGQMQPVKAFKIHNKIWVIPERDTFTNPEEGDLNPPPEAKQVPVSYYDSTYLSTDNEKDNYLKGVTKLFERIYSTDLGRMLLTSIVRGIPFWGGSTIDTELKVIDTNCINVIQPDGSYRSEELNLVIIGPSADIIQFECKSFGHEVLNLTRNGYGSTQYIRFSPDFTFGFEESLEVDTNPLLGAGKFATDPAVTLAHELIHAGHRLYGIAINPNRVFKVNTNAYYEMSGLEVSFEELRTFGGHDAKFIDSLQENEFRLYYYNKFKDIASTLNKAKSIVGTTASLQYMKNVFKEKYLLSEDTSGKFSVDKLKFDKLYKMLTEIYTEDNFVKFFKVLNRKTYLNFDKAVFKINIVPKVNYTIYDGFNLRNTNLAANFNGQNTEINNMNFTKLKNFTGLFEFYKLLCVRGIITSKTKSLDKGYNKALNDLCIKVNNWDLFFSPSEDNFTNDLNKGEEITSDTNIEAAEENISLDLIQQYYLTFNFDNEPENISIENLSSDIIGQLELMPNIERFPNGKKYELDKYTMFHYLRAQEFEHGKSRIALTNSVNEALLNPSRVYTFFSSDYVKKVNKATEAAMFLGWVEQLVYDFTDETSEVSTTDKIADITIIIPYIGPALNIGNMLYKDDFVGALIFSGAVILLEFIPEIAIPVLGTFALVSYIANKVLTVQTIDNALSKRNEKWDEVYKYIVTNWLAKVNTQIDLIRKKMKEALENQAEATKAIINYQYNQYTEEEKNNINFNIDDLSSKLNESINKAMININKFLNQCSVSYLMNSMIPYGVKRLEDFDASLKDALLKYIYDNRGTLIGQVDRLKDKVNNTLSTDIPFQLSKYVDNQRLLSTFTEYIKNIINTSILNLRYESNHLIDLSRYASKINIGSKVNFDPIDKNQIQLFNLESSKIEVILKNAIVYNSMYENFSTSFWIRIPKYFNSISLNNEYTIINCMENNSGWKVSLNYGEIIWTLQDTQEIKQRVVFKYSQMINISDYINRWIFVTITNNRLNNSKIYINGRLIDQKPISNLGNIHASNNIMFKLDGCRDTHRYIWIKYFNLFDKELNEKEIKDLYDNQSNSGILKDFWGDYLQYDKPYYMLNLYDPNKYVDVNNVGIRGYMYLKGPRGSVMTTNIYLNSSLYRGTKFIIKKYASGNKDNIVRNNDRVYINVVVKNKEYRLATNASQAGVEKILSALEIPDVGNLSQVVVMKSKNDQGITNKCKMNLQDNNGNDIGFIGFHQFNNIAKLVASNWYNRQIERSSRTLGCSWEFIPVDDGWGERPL

Row | Sequence | Relative Rate | relative rate of proteolysis
1 | SNKTRIDEAAQRATKML [Peptide N10A] | 0.06 | –
2 | SNKTRIDEANQRATK [[1–15]] | 0.03 | –
3 | SNKTRIDEANQRASKML [Peptide T14S] | 0.26 | 0.26
4 | SNKTRIDEANQRABKML [Peptide T14B] | 1.20 | 1.20
5 | SNKTRIDEBNQRATKML [Peptide A9B] | 0.38 | 0.38
6 | SNKTRTDEANQRATKM [[1–16]] | 1.17 | –
7 | SNKTRIDEANQRATKAL [Peptide M16A] | 0.38 | 0.38
8 | SNKTRIDQANQRATKML [Peptide E8Q] | 2.08 | 2.08
9 | SNKTRIDEANQRATAML [Peptide K15A] | 0.12 | 0.12
10 | SNKTRIDEANARATKML [Peptide Q11A] | 0.19 | 0.19
11 | SNKTRIDEANQRATKXL [Peptide M16X] | 1.20 | 1.20
12 | SNKTRIDEANQRBTKML [Peptide A13B] | 0.79 | 0.79
13 | SNKTRIDEANBRATKML [Peptide Q11B] | 0.25 | 0.25
14 | SNKTRINEANQRATKML [Peptide D7N] | 0.23 | 0.23
15 | SNKTRIDEANQRATKML [[1–17]] | 1.00 | –
16 | SNKTRIDEANNRATKML [Peptide Q11N] | 0.66 | 0.66
